Measured values from patent US12318381B2, “Treatment for non-alcoholic fatty liver disease” (1GLOBE BIOMEDICAL CO., LTD., priority 2018, dated 2025).
Entries after “also recorded” stand apart in the source; their conditions may differ.

Assays:
human HepG2 liver cells = assay: Intracellular triglyceride content in palmitoleic acid-treated HepG2 cells (biochemical kit); type: cell-based; settings: HepG2, 1.6 mM palmitoleic acid in EMEM, 48 hours, 0.1 μM compound vs DMSO (FIG. 1A)
Method: A series of in vitro experiments were first carried out with various human hepatocyte cultures. For example, human HepG2 liver cells were incubated with 1.6 mM palmitoleic acid in EMEM medium for 48 hours in the presence of 0.1 μM Compound 13-3 or control vehicle, DMSO. After 48 hours, cells were collected and the intracellular triglyceride content was measured by a biochemical kit (Biovision, Mountain View, Calif.) as described in Derdak et al. J Hepatol. 2013; 58(4):785-91.

HFD-fed mice [1] = assay: High-fat diet (HFD)-induced obesity/NAFLD mouse model: body weight, food/water intake, liver size and weight; type: in vivo
Excerpt: (§1) In order to assess the in vivo efficacy of Compound 13-3 in improving obesity, and ameliorating NAFLD/NASH, a previously used modified high-fat diet (HFD) was employed to induce obesity and severe fatty liver disease in mice (Derdak et al. Journal of Hepatology 2013; 58(4):785-91).
(§2) Five-week-old male, C57Bl/6J mice (12-18 per group, Jackson Laboratory, Bar Harbor, Me.) were fed ad libitum with a modified high fat or control diet (Bioserv, Frenchtown, N.J.) for 15 weeks. […] We had verified the efficacy of this diet to induce obesity and NAFLD in various pilot studies. At the end of the 15-week long feeding regimen, this diet caused substantial ALT elevation—indicative of liver injury—in these mice.
(§3) After 15 weeks on the modified HFD, the mice were put on a Compound 13-3 (or control vehicle) dosing regimen, in which the introductory 5 mg/kg (p.o., t.i.w. for the first 3 weeks) dose was followed by the administration of 10 mg/kg (p.o., t.i.w. for additional 5 weeks) therapeutic dose. During the course of the drug treatment, the animals were monitored daily for changes in body weight, food/water intake, and adverse effects.

HFD-fed mice [2] = assay: HFD-induced NAFLD mouse model: liver histology (H&E, Masson's trichrome, PAS) and NAFLD Activity Score; type: in vivo
Excerpt: as §1, §2, §3
The pronounced efficacy of Compound 13-3 in improving NAFLD was further supported by microscopical analysis of the harvested liver samples (FIG. 4).
Microscopic evaluation of hematoxylin-eosin (H&E) stained liver slides was performed by an expert pathologist to determine the effect of the drug treatment on the NAFLD Activity Score (NAS), as a primary read-out for the anti-NAFLD efficacy of Compound 13-3. The composite NAS score is frequently used to describe the severity of the characteristic pathological changes seen in NAFLD/NASH (Kleiner D E et al. Hepatology. 2005; 41(6):1313-21), including steatosis, lobular inflammation (FIG. 5A), and hepatocellular ballooning (FIG. 5B).

HFD-fed mice [3] = assay: HFD-induced NAFLD mouse model: hepatic triglyceride biochemical assay; type: in vivo; settings: HFD-fed mice liver (FIG. 6A)
Excerpt: as §2, §3
(§4) This biochemical change is very important, as ectopic fat accumulation has been linked to lipotoxicity and hepatocellular injury. The extent of liver injury has been characterized by measuring serum levels of two liver enzymes ALT (FIG. 6B) and AST (FIG. 6C) (UMASS Mouse Phenotyping Center Analytical Core, Worcester, Mass.) at the time of euthanasia.

HFD-fed mice [4] = assay: HFD-induced NAFLD mouse model: serum ALT and AST levels; type: in vivo
Excerpt: as §2, §3, §4

collagen type I, alpha 1 = assay: Hepatic gene expression by quantitative real-time PCR in HFD-fed mice; type: in vivo, mouse; settings: HFD-fed mice liver, quantitative real-time PCR (FIG. 5D)
Excerpt: as §2, §3
Therefore, pharmaceutical compositions based on Compound 13-3 and other compounds of the invention will likely provide a viable treatment of NAFLD and especially NASH.

ACOX1 = assay: as above; type: in vivo, mouse; settings: HFD-fed mice (FIG. 7B)
Excerpt: as §2, §3
(§5) To study the effect of Compound 13-3 on the mediators of fatty acid metabolism, we employed quantitative real-time PCR using commercially available probes to assess mediators of fatty acid metabolism in HFD-fed mice treated with Compound 13-3. As shown in FIGS. 7A-7E, gene expression of some key mediators of fatty acid oxidation such as CPT1a (FIG. 7A), an enzyme that catalyzes the rate-limiting step of fatty acid oxidation in the mitochondrion, of peroxisomal ACOX1 (FIG. 7B) and of FGF21 (FIG. 7C), a recently described hepatokine with pronounced anti-NAFLD and hepatoprotective efficacy (see, Maratos-Flier E Exp Cell Res (2017) 360(1): 2-5; Sonoda J, et al. Horm Mol Biol Clin Investig (2017) 30(2); Xu J, et al. Diabetes (2009) 58(1):250-259; Li H, et al. Diabetes (2012) 61(4): 797-806; Desai B N, et al. Mot Metab (2017) 6(11):1395-1406), were increased by Compound 13-3 treatment in HFD-fed mice. Many of the beneficial metabolic effects are linked to FGF21, and FGF21 itself may further enhance fatty acid oxidation (Xu J, et al. Diabetes (2009) 58(1):250-259; Li H, et al. Diabetes (2012) 61(4):797-806). We, therefore, also measured serum levels of FGF21 using a commercially available ELISA kit.

CPT1a = assay: as above; type: in vivo, mouse; settings: HFD-fed mice (FIG. 7A)
Excerpt: as §2, §3, §5

FGF21 [5] = assay: as above; type: in vivo, mouse; settings: HFD-fed mice (FIG. 7C)
Excerpt: as §2, §3, §5

FGF21 [6] = assay: Serum FGF21 ELISA in HFD-fed mice; type: in vivo, mouse; settings: ELISA (FIG. 7D)
Excerpt: as §2, §3
To study the effect of Compound 13-3 on the mediators of fatty acid metabolism, we employed quantitative real-time PCR using commercially available probes to assess mediators of fatty acid metabolism in HFD-fed mice treated with Compound 13-3. […] We, therefore, also measured serum levels of FGF21 using a commercially available ELISA kit.

leptin = assay: Serum leptin ELISA in HFD-fed mice; type: in vivo, mouse; settings: ELISA (FIG. 7E)
Excerpt: as §2, §3
A suppressive effect of exogenous FGF21 on circulating leptin levels has been previously observed in non-human primates. Accordingly, we also measured serum leptin levels using a commercially available ELISA kit.

CD36 = assay: Hepatic gene expression in HFD-fed mice; type: in vivo, mouse; settings: HFD-fed mice liver (FIG. 8D)
Excerpt: as §2, §3
(§6) FGF21 has also been linked to the suppression of adipogenesis by suppressing hepatic PPAR-γ, FABP4 and CD36 (Xu J, et al. Diabetes (2009) 58(1):250-259). In view of this, we next assessed the expression of these mediators of adipogenesis in the livers of Compound 13-3-treated, HFD-fed mice.

FABP4 = assay: Hepatic gene expression in HFD-fed mice; type: in vivo, mouse; settings: HFD-fed mice liver (FIG. 8C)
Excerpt: as §2, §3, §6

PPAR-γ [7] = assay: Hepatic gene expression in HFD-fed mice; type: in vivo, mouse; settings: HFD-fed mice (FIG. 8A)
Excerpt: as §2, §3, §6

PPAR-γ [8] = assay: Hepatic protein expression by Western-blotting and densitometry in HFD-fed mice; type: in vivo, mouse; settings: Western-blotting and densitometry (FIG. 8B)
Excerpt: as §2, §3, §6

In the case of `CCN(CC)CCNC(=O)c1c(C)[nH]c(/C=C2\C(=O)Nc3ccc(-c4csc(-c5ccccc5)n4)cc32)c1C` [Compound 13-3], the “palmitoleic acid-induced increase of intracellular triglyceride content” value (human HepG2 liver cells) is reported as “markedly suppressed”, the “change in body weight during treatment” value (HFD-fed mice [1]; HFD-fed C57Bl/6J mice, 5 mg/kg p.o. t.i.w. 3 weeks then 10 mg/kg p.o. t.i.w. 5 weeks (FIG. 2A)) is reported as “not only prevented additional weight gain in the mice on HFD, but also triggered a gradual weight loss” and the food intake (HFD-fed mice [1]; HFD-fed mice, 5 mg/kg then 10 mg/kg p.o. t.i.w. (FIG. 2C)) is reported as “not linked to decreased food intake”. The water intake (HFD-fed mice [1]; HFD-fed mice, 5 mg/kg then 10 mg/kg p.o. t.i.w. (FIG. 2D)) was “not linked to decreased food intake or water intake”, the “size of the liver (macroscopic overview at euthanasia)” value (HFD-fed mice [1]; HFD-fed mice, 5 mg/kg then 10 mg/kg p.o. t.i.w., vs vehicle (FIG. 2E, 3A)) was “markedly decreased the size of the liver; also recorded: essentially comparable to the lean animals” and the “macroscopic appearance of the liver” value (HFD-fed mice [1]; HFD-fed mice, vs vehicle (pale yellow enlarged liver) (FIG. 2E)) was “healthier, darker brown appearance”. The “fatty metamorphosis / ectopic fat accumulation in the liver” value (HFD-fed mice [1]; HFD-fed mice, vs vehicle-treated littermates (FIG. 3A-3C)) was “markedly decreased or prevented ectopic fat accumulation”, the liver weight (HFD-fed mice [1]; HFD-fed mice, vs vehicle-treated littermates, at euthanasia (FIG. 3A, 3B)) was “profoundly decrease liver weight” and the “HFD-induced steatosis and lobular inflammation (NAS components)” value (HFD-fed mice [2]; HFD-fed mice (FIG. 5A)) was “suppressed”. For the same compound, the “HFD-induced hepatocellular ballooning (NAS component)” value (HFD-fed mice [2]; HFD-fed mice (FIG. 5B)) was “eliminated”, the “hepatic glycogen depletion (Periodic Acid Schiff staining)” value (HFD-fed mice [2]; HFD-fed mice, vehicle group depleted in zones 2 & 3 (FIG. 4 bottom row)) was “evidence for hepatic depletion of glycogen was not present” and the “fibrosis (Masson's trichrome staining)” value (HFD-fed mice [2]; HFD-fed mice, vehicle group showed stage 1 fibrosis (FIG. 4 middle row)) was “did not exhibit any signs of fibrosis”. The “H&E histology: disorganized liver architecture, micro- and macrovesicular steatosis, hepatocyte ballooning and inflammation” value (HFD-fed mice [2]; HFD-fed mice, vs vehicle (FIG. 4 top row)) was “markedly suppressed”, the “NAFLD Activity Score (NAS)” value (HFD-fed mice [2]; HFD-fed mice, vs vehicle-treated littermates (FIG. 5C)) was “substantially lower” and the hepatic triglyceride content (HFD-fed mice [3]) was “prevented the HFD-induced steatosis”. For the same compound, the “serum ALT” value (HFD-fed mice [4]; at euthanasia (FIG. 6B)) was “suppresses ALT elevation”, the “serum AST” value (HFD-fed mice [4]; at euthanasia (FIG. 6C)) was “not affected” and the “serum AST:ALT ratio” value (HFD-fed mice [4]; vs vehicle (FIG. 6D)) was “largely prevent the drastic decrease”. The “hepatic production (gene expression) of collagen type I, alpha 1” value (collagen type I, alpha 1) was “marked decrease”, the ACOX1 gene expression (ACOX1) was “increased” and the CPT1a gene expression (CPT1a) was “increased”. The FGF21 gene expression (FGF21 [5]) was “pronounced elevation”, the “serum FGF21 level” value (FGF21 [6]) was “increased” and the “serum leptin level (HFD-induced increase)” value (leptin) was “significantly decreased”. The CD36 gene expression (CD36) was “decreased”, the FABP4 gene expression (FABP4) was “decreased” and the “PPAR-γ gene expression in the liver” value (PPAR-γ [7]) was “suppressed”. For the same compound, the “PPAR-γ protein expression in the liver” value (PPAR-γ [8]) was “suppressed”.
